# Test results taken from US8895504B2, “Amylin derivatives” (priority 2008, dated 2014).
# *1 amine or outer side, *2 acyl side, *3 side chain or, on linkers, in order; H or OH if unused. Where a SMILES comes first, the peptide text is derived from it. Bridges are numbered along the chain shown (N, C = ends). The star is where a group is joined. C20 diacid = O=C(O)CCCCCCCCCCCCCCCCCCC(=O)*; C18 diacid = O=C(O)CCCCCCCCCCCCCCCCC(=O)*; PEG8 = NCCOCCOCCOCCOCCOCCOCCOCCOCCC(=O)O; γGlu = O=C(O)[C@H](CCC(=O)[*:2])N[*:1]; AEEA = NCCOCCOCC(=O)O
# Target: T1, Amylin 3(a) receptor (human calcitonin receptor (CTa) and RAMP-3) (Homo sapiens, UniProt O60896+P30988)
# T1 construct: expressed in transfected cells; host or cells: BHK570 cells, stably transfected with a CRE-luciferase reporter
# Experiment: Luciferase assay (III), BHK Amylin 3(a)//CRE-luc cells
# Type: cell-based
# Conditions: BHK cells with Amylin 3(a) receptor and CRE luciferase reporter, 4 hours incubation; read-out: Potency Luciferase
# How it was run: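 BHK570 cells stably expressing CTa, RAMP-3 and a CRE-luciferase reporter, seeded at about 20,000 cells/well and grown overnight. Cells were exposed to standard or sample for 4 h at 37° C in phenol red-free DMEM with 10% FBS and 10 mM Hepes, pH 7,4. Luminescence was read after 30 min LucLite at room temperature.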
# T1 sequence (O60896 24-148): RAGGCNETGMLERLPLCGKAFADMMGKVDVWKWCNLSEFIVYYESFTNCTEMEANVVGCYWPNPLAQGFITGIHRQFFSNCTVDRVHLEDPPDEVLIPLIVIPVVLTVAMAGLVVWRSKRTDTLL
# T1 sequence (P30988 25-474): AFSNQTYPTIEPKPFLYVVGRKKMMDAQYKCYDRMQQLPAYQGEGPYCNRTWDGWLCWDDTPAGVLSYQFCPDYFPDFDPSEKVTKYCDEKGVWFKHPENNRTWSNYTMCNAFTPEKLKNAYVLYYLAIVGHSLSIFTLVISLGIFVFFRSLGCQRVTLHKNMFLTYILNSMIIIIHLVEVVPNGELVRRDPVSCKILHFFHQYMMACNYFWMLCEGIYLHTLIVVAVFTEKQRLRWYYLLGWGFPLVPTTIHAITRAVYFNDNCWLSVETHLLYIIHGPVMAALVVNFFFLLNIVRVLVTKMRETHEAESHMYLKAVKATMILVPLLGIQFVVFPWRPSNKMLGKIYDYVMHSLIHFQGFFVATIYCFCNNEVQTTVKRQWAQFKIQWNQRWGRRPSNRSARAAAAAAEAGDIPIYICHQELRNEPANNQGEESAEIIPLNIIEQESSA
row,Structure (SMILES),EC50
1,"CC[C@H](C)[C@H](NC(=O)[C@@H]1CCCN1C(=O)CNC(=O)[C@H](Cc1ccccc1)NC(=O)[C@H](CC(N)=O)NC(=O)[C@H](CC(N)=O)NC(=O)[C@H](CO)NC(=O)[C@H](CO)NC(=O)[C@H](Cc1c[nH]cn1)NC(=O)[C@H](Cc1c[nH]cn1)NC(=O)[C@H](CC(C)C)NC(=O)[C@H](Cc1ccccc1)NC(=O)[C@H](CC(N)=O)NC(=O)[C@H](C)NC(=O)[C@H](CC(C)C)NC(=O)[C@H](CCCNC(=N)N)NC(=O)[C@H](CCC(N)=O)NC(=O)[C@@H](NC(=O)[C@H](C)NC(=O)[C@@H]1CSSC[C@H](NC(=O)[C@H](CCCCN)NC(=O)CC[C@H](NC(=O)CCCCCCCCCCCCCCCCCCC(=O)O)C(=O)O)C(=O)N[C@@H](CC(N)=O)C(=O)N[C@@H]([C@@H](C)O)C(=O)N[C@@H](C)C(=O)N[C@@H]([C@@H](C)O)C(=O)N1)[C@@H](C)O)C(=O)N[C@@H](CC(C)C)C(=O)N1CCC[C@H]1C(=O)N1CCC[C@H]1C(=O)N[C@H](C(=O)N[C@@H](CC(N)=O)C(=O)N[C@H](C(=O)NCC(=O)N[C@@H](CO)C(=O)N[C@@H](CC(N)=O)C(=O)N[C@H](C(=O)N[C@@H](Cc1ccc(O)cc1)C(N)=O)[C@@H](C)O)C(C)C)[C@@H](C)O [Example 7, N-alpha-[(S)-4-Carboxy-4-(19-carboxynonadecanoylamino)butyryl]-[His17]-pramlintide] ({C20 diacid-γGlu}-KCNTATCATQRLANFLHHSSNNFGPILPPTNVGSNTY-NH2; disulfide 2-7)",0.2 nM
2,"CC[C@H](C)[C@H](NC(=O)[C@@H]1CCCN1C(=O)CNC(=O)[C@H](Cc1ccccc1)NC(=O)[C@H](CC(N)=O)NC(=O)[C@H](CC(N)=O)NC(=O)[C@H](CO)NC(=O)[C@H](CO)NC(=O)[C@H](Cc1c[nH]cn1)NC(=O)[C@H](Cc1c[nH]cn1)NC(=O)[C@H](CC(C)C)NC(=O)[C@H](Cc1ccccc1)NC(=O)[C@H](CC(N)=O)NC(=O)[C@H](C)NC(=O)[C@H](CC(C)C)NC(=O)[C@H](CCCNC(=N)N)NC(=O)[C@H](CCC(N)=O)NC(=O)[C@@H](NC(=O)[C@H](C)NC(=O)[C@@H]1CSSC[C@H](NC(=O)[C@H](CCCNC(=N)N)NC(=O)CCOCCOCCOCCOCCOCCOCCOCCOCCNC(=O)CC[C@H](NC(=O)CCCCCCCCCCCCCCCCC(=O)O)C(=O)O)C(=O)N[C@@H](CC(N)=O)C(=O)N[C@@H]([C@@H](C)O)C(=O)N[C@@H](C)C(=O)N[C@@H]([C@@H](C)O)C(=O)N1)[C@@H](C)O)C(=O)N[C@@H](CC(C)C)C(=O)N1CCC[C@H]1C(=O)N1CCC[C@H]1C(=O)N[C@H](C(=O)N[C@@H](CC(N)=O)C(=O)N[C@H](C(=O)NCC(=O)N[C@@H](CO)C(=O)N[C@@H](CC(N)=O)C(=O)N[C@H](C(=O)N[C@@H](Cc1ccc(O)cc1)C(N)=O)[C@@H](C)O)C(C)C)[C@@H](C)O [Example 52, N-alpha-[3-(2-{2-[2-(2-{2-[2-(2-{2-[(S)-4-Carboxy-4-(17-carboxyheptadecanoylamino)butyrylamino]ethoxy}ethoxy)ethoxy]ethoxy}ethoxy)ethoxy]ethoxy}ethoxy)propionylamino][Arg1,His17]-pramlintide] ({C18 diacid-γGlu-PEG8}-RCNTATCATQRLANFLHHSSNNFGPILPPTNVGSNTY-NH2; disulfide 2-7)",0.08 nM
3,"CC(C)C[C@H](NC(=O)[C@H](CCCNC(=N)N)NC(=O)[C@H](CCC(N)=O)NC(=O)[C@@H](NC(=O)[C@H](C)NC(=O)[C@@H]1CSSC[C@H](NC(=O)[C@H](CCC(=O)O)NC(=O)[C@H](CCCNC(=N)N)NC(=O)[C@H](CCC(=O)O)NC(=O)CC[C@H](NC(=O)CCCCCCCCCCCCCCCCCCC(=O)O)C(=O)O)C(=O)N[C@@H](CC(N)=O)C(=O)N[C@@H]([C@@H](C)O)C(=O)N[C@@H](C)C(=O)N[C@@H]([C@@H](C)O)C(=O)N1)[C@@H](C)O)C(=O)N[C@@H](C)C(=O)N[C@@H](CC(=O)O)C(=O)N[C@@H](Cc1ccccc1)C(=O)N[C@@H](CC(C)C)C(=O)N[C@@H](Cc1c[nH]cn1)C(=O)N[C@@H](Cc1c[nH]cn1)C(=O)N[C@@H](CO)C(=O)N[C@@H](CO)C(=O)N[C@@H](CCC(N)=O)C(=O)N[C@@H](CC(N)=O)C(=O)N[C@@H](Cc1ccccc1)C(=O)NCC(=O)N[C@@H](C)C(=O)N1CCC[C@H]1C(=O)N[C@@H](CC(C)C)C(=O)N[C@@H](CO)C(=O)N[C@@H](CO)C(=O)N[C@H](C(=O)N[C@@H](CC(N)=O)C(=O)N[C@H](C(=O)NCC(=O)N[C@@H](CO)C(=O)N[C@@H](CC(N)=O)C(=O)N[C@H](C(=O)N[C@@H](Cc1ccc(O)cc1)C(N)=O)[C@@H](C)O)C(C)C)[C@@H](C)O [Example 48, N-alpha-[(S)-4-Carboxy-4-(19-carboxynonadecanoylamino)butyryl]-Glu-Arg-[Glu1,Asp14,His17,Gln21,Ala25,Pro26,Ser28,Ser29]-pramlintide] ({C20 diacid-γGlu}-ERECNTATCATQRLADFLHHSSQNFGAPLSSTNVGSNTY-NH2; disulfide 4-9)",0.06 nM
4,"CC[C@H](C)[C@H](NC(=O)[C@@H]1CCCN1C(=O)CNC(=O)[C@H](Cc1ccccc1)NC(=O)[C@H](CC(N)=O)NC(=O)[C@H](CC(N)=O)NC(=O)[C@H](CO)NC(=O)[C@H](CO)NC(=O)[C@H](Cc1c[nH]cn1)NC(=O)[C@H](Cc1c[nH]cn1)NC(=O)[C@H](CC(C)C)NC(=O)[C@H](Cc1ccccc1)NC(=O)[C@H](CC(N)=O)NC(=O)[C@H](C)NC(=O)[C@H](CC(C)C)NC(=O)[C@H](CCCNC(=N)N)NC(=O)[C@H](CCC(N)=O)NC(=O)[C@@H](NC(=O)[C@H](C)NC(=O)[C@@H]1CSSC[C@H](NC(=O)[C@H](CCCNC(=N)N)NC(=O)CC[C@H](NC(=O)CCCCCCCCCCCCCCCCCCC(=O)O)C(=O)O)C(=O)N[C@@H](CC(N)=O)C(=O)N[C@@H]([C@@H](C)O)C(=O)N[C@@H](C)C(=O)N[C@@H]([C@@H](C)O)C(=O)N1)[C@@H](C)O)C(=O)N[C@@H](CC(C)C)C(=O)N1CCC[C@H]1C(=O)N1CCC[C@H]1C(=O)N[C@H](C(=O)N[C@@H](CC(N)=O)C(=O)N[C@H](C(=O)NCC(=O)N[C@@H](CO)C(=O)N[C@@H](CC(N)=O)C(=O)N[C@H](C(=O)N[C@@H](Cc1ccc(O)cc1)C(N)=O)[C@@H](C)O)C(C)C)[C@@H](C)O [Example 6, N-alpha-[(S)-4-Carboxy-4-(19-carboxynonadecanoylamino)butyryl]-[Arg1,His17]-pramlintide] ({C20 diacid-γGlu}-RCNTATCATQRLANFLHHSSNNFGPILPPTNVGSNTY-NH2; disulfide 2-7)",0.3 nM
5,"CC[C@H](C)[C@H](NC(=O)[C@@H]1CCCN1C(=O)CNC(=O)[C@H](Cc1ccccc1)NC(=O)[C@H](CC(N)=O)NC(=O)[C@H](CCC(N)=O)NC(=O)[C@H](CO)NC(=O)[C@H](CO)NC(=O)[C@H](Cc1c[nH]cn1)NC(=O)[C@H](Cc1c[nH]cn1)NC(=O)[C@H](CC(C)C)NC(=O)[C@H](Cc1ccccc1)NC(=O)[C@H](CC(N)=O)NC(=O)[C@H](C)NC(=O)[C@H](CC(C)C)NC(=O)[C@H](CCCNC(=N)N)NC(=O)[C@H](CCC(N)=O)NC(=O)[C@@H](NC(=O)[C@H](C)NC(=O)[C@@H]1CSSC[C@H](NC(=O)[C@H](CCCNC(=N)N)NC(=O)[C@H](Cc2c[nH]cn2)NC(=O)[C@H](Cc2c[nH]cn2)NC(=O)COCCOCCNC(=O)CC[C@H](NC(=O)CCCCCCCCCCCCCCCCCCC(=O)O)C(=O)O)C(=O)N[C@@H](CC(N)=O)C(=O)N[C@@H]([C@@H](C)O)C(=O)N[C@@H](C)C(=O)N[C@@H]([C@@H](C)O)C(=O)N1)[C@@H](C)O)C(=O)N[C@@H](CC(C)C)C(=O)N1CCC[C@H]1C(=O)N1CCC[C@H]1C(=O)N[C@H](C(=O)N[C@@H](CC(N)=O)C(=O)N[C@H](C(=O)NCC(=O)N[C@@H](CO)C(=O)N[C@@H](CC(N)=O)C(=O)N[C@H](C(=O)N[C@@H](Cc1ccc(O)cc1)C(N)=O)[C@@H](C)O)C(C)C)[C@@H](C)O [Example 59, N-alpha-[2-(2-{2-[4-(S)-Carboxy-4-(19-carboxynonadecanoylamino)butyrylamino]ethoxy}ethoxy)acetyl]-His-His-[Arg1His17,Gln21]-pramlintide] ({C20 diacid-γGlu-AEEA}-HHRCNTATCATQRLANFLHHSSQNFGPILPPTNVGSNTY-NH2; disulfide 4-9)",0.06 nM
6,"CC[C@H](C)[C@H](NC(=O)[C@@H]1CCCN1C(=O)CNC(=O)[C@H](Cc1ccccc1)NC(=O)[C@H](CC(N)=O)NC(=O)[C@H](CC(N)=O)NC(=O)[C@H](CO)NC(=O)[C@H](CO)NC(=O)[C@H](Cc1c[nH]cn1)NC(=O)[C@H](Cc1c[nH]cn1)NC(=O)[C@H](CC(C)C)NC(=O)[C@H](Cc1ccccc1)NC(=O)[C@H](CC(N)=O)NC(=O)[C@H](C)NC(=O)[C@H](CC(C)C)NC(=O)[C@H](CCCNC(=N)N)NC(=O)[C@H](CCC(N)=O)NC(=O)[C@@H](NC(=O)[C@H](C)NC(=O)[C@@H]1CSSC[C@H](NC(=O)[C@H](CCC(=O)O)NC(=O)[C@H](CCC(=O)O)NC(=O)CC[C@H](NC(=O)CCCCCCCCCCCCCCCCCCC(=O)O)C(=O)O)C(=O)N[C@@H](CC(N)=O)C(=O)N[C@@H]([C@@H](C)O)C(=O)N[C@@H](C)C(=O)N[C@@H]([C@@H](C)O)C(=O)N1)[C@@H](C)O)C(=O)N[C@@H](CC(C)C)C(=O)N1CCC[C@H]1C(=O)N1CCC[C@H]1C(=O)N[C@H](C(=O)N[C@@H](CC(N)=O)C(=O)N[C@H](C(=O)NCC(=O)N[C@@H](CO)C(=O)N[C@@H](CC(N)=O)C(=O)N[C@H](C(=O)N[C@@H](Cc1ccc(O)cc1)C(N)=O)[C@@H](C)O)C(C)C)[C@@H](C)O [Example 50, N-alpha-[(S)-4-Carboxy-4-(19-carboxynonadecanoylamino)butyryl]-Glu-[Glu1,His17]-pramlintide] ({C20 diacid-γGlu}-EECNTATCATQRLANFLHHSSNNFGPILPPTNVGSNTY-NH2; disulfide 3-8)",0.3 nM
